Laboratory results: patent US6710056B2, “Amidinophenylpyruvic acid derivatives” (Ajinomoto Co., Inc., priority 1999, dated 2004)
Where a name gives a salt, the structure may show the parent alone.

Key:
[1] = target: T1, activated human blood coagulation factor VII (Homo sapiens, UniProt P08709); assay: Determination of antagonistic activity to activated human blood coagulation factor VII; format: biochemical; details: FVIIa mixed with tissue factor, substrate S-2288, pH 7.4, initial velocity; read-out: Antagonistic activity to activated blood coagulation factor VII (pIC50 ) (converted)
T1 construct: purchased Enzyme Research Laboratories Ltd. (FVIIa); American Diagnostica Laboratories Ltd. (tissue factor)
Protocol: Determination of antagonistic activity to activated human blood coagulation factor VII:
100 nM solution of activated human blood coagulation factor VII (Enzyme Research Laboratories Ltd.) in pH 7.4 tris hydrochloride buffer solution was mixed with 100 nM solution of a tissue factor (American Diagnostica Laboratories Ltd.) in pH 7.4 tris hydrochloride buffer solution in equal amounts, and the obtained mixture was left to stand at room temperature for 30 minutes. 50 μl of 50 mM tris hydrochloride buffer solution having a pH adjusted to 7.4 was added to 5 μl of an aqueous solution of a compound to be tested. Then 10 μl of the previously prepared mixture of 50 nM of each of the solutions of activated human blood coagulation factor VII and tissue factor was added to the obtained mixture, and they were incubated at room temperature for 10 minutes. Then 25 μl of 3.2 mM solution of D-isoleucyl-L-prolyl-L-arginyl-P-nitroanilide hydrochloride (S-2288, Daiichi Pure Chemicals Co., Ltd.) in pH 7.4 tris hydrochloride buffer was added to the obtained mixture. The absorbance was determined and the initial reaction velocity was calculated. A control was prepared by using 5 μl of tris hydrochloride buffer adjusted to pH 7.4 in place of the solution of the compound to be tested. The absorbance was determined with MICROPLATE READER Model 3550-UV (BIO RAD) at a wavelength of 405 nm at intervals of […]. The negative logarithm (pIC50) of the concentration of the sample compound for the 50% inhibition of the activity (initial velocity) of the activated blood coagulation factor VII was determined, and it was employed as the index of the antagonistic activity to the activated blood coagulation factor VII.

human thrombin = target: T2, human thrombin (Homo sapiens, UniProt P00734); assay: Determination of antagonistic activity to human thrombin; format: biochemical; details: substrate S-2238, pH 8.4, initial velocity, read-out: Antagonistic activity to thrombin (pIC50) (converted)
T2 construct: solution of human thrombin (SIGMA Co. Ltd.); purchased SIGMA Co. Ltd
Protocol: (2) Determination of Antagonistic Activity to Human Thrombin:
130 μl of 100 mM tris hydrochloride buffer adjusted at pH 8.4 was added to 10 μl of an aqueous solution of a sample compound having antagonistic activity to human thrombin. Then 10 μl of a solution of human thrombin (SIGMA Co. Ltd.) adjusted to 2 units/ml with pH 8.4 tris hydrochloride buffer was added to the obtained mixture, and they were incubated at room temperature for 10 minutes. 50 μl of a 0.4 mM solution of D-phenylalanyl-L-pipecolyl-L-arginyl-P-nitroanilide dihydrochloride (S-2238, Daiichi Pure Chemicals Co., Ltd.) in pH 8.4 tris hydrochloride buffer was added to the obtained mixture. The absorbance was determined and the initial reaction velocity was calculated. A control was prepared by using 10 μl of tris hydrochloride buffer adjusted to pH 8.4 in place of the solution of the compound to be tested. The absorbance was determined with MICROPLATE READER Model 3550-UV (BIO RAD) at a wavelength of 405 nm at intervals of 15 seconds for 6 minutes. The negative logarithm (pIC50) of the concentration of the sample compound for the 50% inhibition of the activity (initial velocity) of thrombin was determined, and it was employed as the index of the antagonistic activity to thrombin.

T1 sequence (P08709 213-466 limits assumed): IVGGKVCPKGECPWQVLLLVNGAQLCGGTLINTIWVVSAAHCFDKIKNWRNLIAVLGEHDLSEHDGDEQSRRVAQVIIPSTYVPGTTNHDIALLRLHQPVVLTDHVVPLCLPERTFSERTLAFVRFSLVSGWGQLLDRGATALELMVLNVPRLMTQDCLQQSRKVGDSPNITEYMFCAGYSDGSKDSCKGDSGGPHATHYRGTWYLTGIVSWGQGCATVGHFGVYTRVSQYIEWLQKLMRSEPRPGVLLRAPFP
T1 sequence (P08709 61-212 limits assumed): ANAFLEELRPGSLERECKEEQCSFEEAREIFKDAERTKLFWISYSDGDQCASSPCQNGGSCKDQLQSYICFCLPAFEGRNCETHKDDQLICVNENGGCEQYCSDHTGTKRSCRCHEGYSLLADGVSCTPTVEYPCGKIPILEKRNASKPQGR
T1 sequence (P13726 33-295 partner): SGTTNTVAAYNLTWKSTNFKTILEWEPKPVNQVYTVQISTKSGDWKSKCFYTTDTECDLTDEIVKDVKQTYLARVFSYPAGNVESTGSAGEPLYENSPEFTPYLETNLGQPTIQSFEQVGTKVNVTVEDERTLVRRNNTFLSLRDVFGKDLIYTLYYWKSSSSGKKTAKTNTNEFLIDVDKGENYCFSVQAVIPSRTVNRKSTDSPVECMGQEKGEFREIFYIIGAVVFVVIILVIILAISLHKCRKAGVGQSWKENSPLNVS

Row | SMILES | IC50 [1] [nM] | IC50 (human thrombin) [nM]
1 | N=C(N)c1ccc(CC(=O)C(=O)O)c(OC[C@@H](CCC(=O)O)NC(=O)c2cc3c(cc2Br)CCO3)c1 [Compound of Ex. 45, (4R)-4-[(5-Bromo-2,3-dihydrobenzo[b]furan-6-carbonyl)amino]-5-[5-amidino-2-(2-carboxy-2-oxoethyl)phenoxy]pentanoic acid trifluoroacetate] | 100 | 
2 | COc1ccc(-c2ccccc2)cc1C(=O)N[C@H](CCC(=O)O)COc1cc(C(=N)N)ccc1CC(=O)C(=O)O [Compound of Ex. 27, (4R)-4-(2-Methoxy-5-phenylbenzoylamino)-5-[5-amidino-2-(2-carboxy-2-oxoethyl)phenoxy]pentanoic acid trifluoroacetate] | 50.1 | 
3 | N=C(N)c1ccc(-c2cccc(C(=O)N[C@H](CCC(=O)O)COc3cc(C(=N)N)ccc3CC(=O)C(=O)O)c2)cc1 [Compound of Ex. 13, (4R)-4-[[3-(4-Amidinophenyl)benzoyl]amino]-5-[5-amidino-2-(2-carboxy-2-oxoethyl)phenoxy]pentanoic acid bistrifluoroacetate] | 100 | 7940
4 | Cc1nc2ccc(C(=O)N[C@H](CCC(=O)O)COc3cc(C(=N)N)ccc3CC(=O)C(=O)O)cc2[nH]1 [Compound of Ex. 4, (4R)-4-[(2-Methylbenzimidazole-5-carbonyl)amino]-5-[5-amidino-2-(2-carboxy-2-oxoethyl)phenoxy]pentanoic acid bistrifluoroacetate] | 200 | > 100000

More lines, now with the values ahead:

Row | IC50 [1] [nM] | IC50 (human thrombin) [nM] | SMILES
5 | 251 | > 100000 | N=C(N)Nc1ccc(C(=O)N[C@H](CCC(=O)O)COc2cc(C(=N)N)ccc2CC(=O)C(=O)O)cc1 [Compound of Ex. 23, (4R)-4-[(4-Guanidinobenzoyl)amino]-5-[5-amidino-2-(2-carboxy-2-oxoethyl)phenoxy]pentanoic acid bistrifluoroacetate]
6 | 5.01 | > 100000 | N=C(N)c1ccc(CC(=O)C(=O)O)c(OC[C@@H](CCC(=O)O)NC(=O)c2ccc3nc(N)sc3c2)c1 [Compound of Ex. 28, (4R)-4-[(2-Aminobenzothiazole-6-carbonyl)amino]-5-[5-amidino-2-(2-carboxy-2-oxoethyl)phenoxy]pentanoic acid trifluoroacetate]
7 | 126 | > 100000 | N=C(N)c1ccc(CC(=O)C(=O)O)c(OC[C@@H](CCC(=O)O)NC(=O)c2ccc3nc(N)ccc3c2)c1 [Compound of Ex. 1, (4R)-4-[(2-Aminoquinoline-6-carbonyl)amino]-5-[5-amidino-2-(2-carboxy-2-oxoethyl)phenoxy]pentanoic acid bistrifluoroacetate]
8 | 20 | 39800 | N=C(N)c1ccc(CC(=O)C(=O)O)c(OCCNC(=O)c2ccc3nc(N)sc3c2)c1 [Compound of Ex. 39, 3-[4-Amidino-2-[2-(2-amino-benzothiazole-6-carbonyl)aminoethoxy]phenyl]-2-oxo-propionic acid trifluoroacetate]
9 | 316 | 31600 | N=C(N)c1ccc(CC(=O)C(=O)O)c(OCCNC(=O)c2ccc3nc(N)ccc3c2)c1 [Compound of Ex. 2, 3-[4-Amidino-2-[2-(2-aminoquinoline-6-carbonyl)aminoethoxy]phenyl]-2-oxopropionic acid bistrifluoroacetate]
